According to patent publication EP4813403A1, “USE OF GLP-1R/GIPR DOUBLE-TARGET AGONIST IN PREPARING ANIMAL DRUG” (Hangzhou Zhongmeihuadong Pharmaceutical Co., Ltd., priority 2023, dated 2025):

Columns and labels:
cat GLP-1R = test: Agonistic activity on GLP-1R of different species (LANCE Ultra cAMP assay): cat; assay type: cell-based; settings: ratio of EC50 value of other species to human EC50 value
Procedure: CHO-K1 cells were seeded in a 6-well plate at 0.6×10^6 cells/well and incubated overnight in an incubator at a temperature of 37 °C and a carbon dioxide concentration of 5%. The next day, CHO-K1 cell media were replaced. Then two tubes A and B were prepared for each plasmid. 100 µL Opti-MEM was added to tube A, then 4 µL Lipofectamine™ 3000 was added and mixed uniformly. 100 µL Opti-MEM was firstly added to tube B, then 2 µg of one of the plasmids (human GLP-1R-pcDNA5 (+) plasmid, cat GLP-1R-pcDNA5 (+) plasmid, human GIPR-pcDNA5 (+) plasmid, cat GIPR-pcDNA5 (+) plasmid) was added and mixed uniformly, and 4 µL P3000™ was added to tube B and mixed uniformly (the ratio of plasmid to transfection reagent was 1 µg: 2 µL). The diluted solution in tube A was added to the diluted solution in tube B, mixed evenly, and incubated at room temperature for 15 minutes. […]
18-20 hours after transfection, human GLP-1R-CHO, cat GLP-1R-CHO, human GIPR-CHO, cat GIPR-CHO cells were resuspended in 1×Casein Stimulation Buffer (HBSS, 5 mM HEPES, 0.5 mM IBMX, 0.1% casein, pH7.4), and seeded into a 384-well cell culture plate at 9 µL/well (cell numbers being 2000, 2000, 1000, 2000 cells/well, respectively). […] The readings at 665 nm and 620 nm were determined with a 330 nm excitation light on a microplate reader. The 665 nm/620 nm reading ratio was calculated. […]

rat GLP-1R = biological target: T1, rat GLP-1R (Rattus norvegicus, UniProt P32301); test: Agonistic activity on GLP-1R of different species (LANCE Ultra cAMP assay): rat; assay type: cell-based; settings: ratio of EC50 value of other species to human EC50 value
T1 construct: expressed in transfected cells
T1 sequence (P32301 22-463): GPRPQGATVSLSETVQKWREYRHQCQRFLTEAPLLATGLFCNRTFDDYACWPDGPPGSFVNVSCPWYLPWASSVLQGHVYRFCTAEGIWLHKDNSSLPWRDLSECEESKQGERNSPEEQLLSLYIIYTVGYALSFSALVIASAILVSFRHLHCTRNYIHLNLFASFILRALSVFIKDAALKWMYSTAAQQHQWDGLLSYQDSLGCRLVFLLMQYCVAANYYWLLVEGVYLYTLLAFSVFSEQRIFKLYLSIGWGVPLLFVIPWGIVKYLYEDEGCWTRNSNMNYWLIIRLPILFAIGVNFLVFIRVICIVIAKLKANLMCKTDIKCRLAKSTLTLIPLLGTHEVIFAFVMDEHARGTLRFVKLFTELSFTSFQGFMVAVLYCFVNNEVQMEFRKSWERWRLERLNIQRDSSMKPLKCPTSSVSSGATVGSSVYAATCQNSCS

in vivo = test: in vivo; design: species or system cats; settings: sc, 0.025 mg/kg
Procedure: After subcutaneous administration to cats, plasma was collected and the drug concentration in plasma was determined to illustrate the in vivo pharmacokinetic properties of the compound according to the present invention. […] The blood samples were stored on wet ice and centrifuged (1500-1600 g, 2-8°C, for 10 minutes) within 0.5 hours to obtain plasma, with at least 100 µL of plasma required for each sample. The plasma was then frozen and stored at -90°C to -60°C for subsequent analysis and detection. 30.0 µL of thawed plasma sample were taken, and 300 µL of acetonitrile solution containing an internal standard was added to precipitate the proteins. The mixture was vortexed for 1 minute and then centrifuged at 13,000 rpm for 5 minutes. 165 µL of the supernatant were transferred to a 96-well plate for LC-MS/MS analysis to determine the drug concentration in the plasma. Based on the drug concentration in plasma of the compound in the cats, the pharmacokinetic parameters were calculated by applying the software Winnolin 8.3 in a non-compartmental model. Table 12 Average pharmacokinetic parameters after single subcutaneous administration in cats

mouse GIPR = biological target: T2, mouse GIPR (Mus musculus, UniProt Q0P543); test: Agonistic activity on GIPR of different species (LANCE Ultra cAMP assay): mouse; assay type: cell-based; settings: ratio of EC50 value of other species to human EC50 value
T2 construct: expressed in transfected cells; host or cells: CHO-K1 (transient)
T2 sequence (Q0P543 19-460): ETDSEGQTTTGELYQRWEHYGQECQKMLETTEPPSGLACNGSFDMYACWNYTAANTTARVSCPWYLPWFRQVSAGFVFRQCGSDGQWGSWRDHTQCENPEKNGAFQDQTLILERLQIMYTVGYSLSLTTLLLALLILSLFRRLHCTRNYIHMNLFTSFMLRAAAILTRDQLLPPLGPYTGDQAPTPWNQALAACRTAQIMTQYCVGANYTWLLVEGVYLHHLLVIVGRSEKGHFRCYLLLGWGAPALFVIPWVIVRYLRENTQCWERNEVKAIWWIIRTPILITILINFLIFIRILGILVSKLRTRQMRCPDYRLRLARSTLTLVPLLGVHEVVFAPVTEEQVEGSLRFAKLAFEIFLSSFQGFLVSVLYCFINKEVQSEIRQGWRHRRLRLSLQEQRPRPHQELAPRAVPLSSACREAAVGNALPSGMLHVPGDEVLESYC

## CC[C@H](C)[C@H](NC(=O)C(C)(C)NC(=O)[C@H](Cc1ccc(O)cc1)NC(=O)[C@H](CC(=O)O)NC(=O)[C@H](CO)NC(=O)[C@@H](NC(=O)C(C)(Cc1ccccc1)NC(=O)[C@@H](NC(=O)CNC(=O)[C@H](CCC(=O)O)NC(=O)C(C)(C)NC(=O)[C@@H](N)Cc1ccc(O)cc1)[C@@H](C)O)[C@@H](C)O)C(=O)NC(C)(C)C(=O)N[C@@H](CC(C)C)C(=O)N[C@@H](CC(=O)O)C(=O)N[C@@H](CCCCN)C(=O)N[C@@H](CCC(N)=O)C(=O)N[C@@H](C)C(=O)N[C@@H](CCC(N)=O)C(=O)N[C@@H](C)C(=O)N[C@@H](CCC(=O)O)C(=O)N[C@@H](Cc1ccccc1)C(=O)N[C@H](C(=O)N[C@@H](CCCCNC(=O)COCCOCCNC(=O)COCCOCCNC(=O)COCCOCCNC(=O)CC[C@H](NC(=O)CCCCCCCCCCCCCCCCCCCCC(=O)O)C(=O)O)C(=O)N[C@@H](Cc1c[nH]c2ccccc12)C(=O)N[C@@H](CC(C)C)C(=O)N[C@@H](CC(C)C)C(=O)N[C@@H](CCCCN)C(=O)NCC(=O)NCC(=O)N1CCC[C@H]1C(=O)N[C@@H](CO)C(=O)N[C@@H](CO)C(=O)NCC(=O)N[C@@H](C)C(=O)N1CCC[C@H]1C(=O)N1CCC[C@H]1C(=O)N1CCC[C@H]1C(=O)N[C@@H](CO)C(=O)N[C@@H](CCCCN)C(N)=O)C(C)C (stereo partly drawn) [Compound P016]
Cat GLP-1R
  GLP-1R EC50 ratio: 2.98
Rat GLP-1R
  GLP-1R EC50 ratio: 1.59
In vivo; both sexes, cat
  AUC(0-inf): 11200 ng·h/mL
  AUC(0-t): 9260 ng·h/mL
  Cmax: 123 ng/mL
  Tmax: 24 h
  half-life: 37.4 h
In vivo; both sexes, cat, MRT0-t
  MRT: 54.4 h
In vivo; both sexes, cat, MRT0-∞
  MRT: 61.6 h
In vivo
  AUC(0-t): 9260 ng·h/mL
  T1/2: 37.4 h
Mouse GIPR
  GIPR EC50 ratio: 12.49
